Read-outs that look alike come from different tables or passages of the source.
Columns and labels:
primary human T-cells [1] = assay: Proliferation assay after 5 days (CellTiter-Glo, CD3 stimulation; PBS counter screen); type: cell-based; details: Homo sapiens, T-cell, 120 h, CD3 stimulation; for Emax: 5 days, normalized to reference compound A1 as stimulator control = 100%, DMSO neutral control, read-out: Emax proliferation (% activation); for EC50: primary human T-cells, CellTiter-Glo after 5 days, EC50 of fitted sigmoidal curve, read-out: Tcell Proliferation CD3 EC50
Outline: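 After compound addition to medium-only plates, cells are cultured 5 days, equilibrated to room temperature, mixed with an equal volume of CellTiter-Glo 2.0 and rocked 15 min before luminescence is read. Signal reflects ATP content, taken as proportional to cell number.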

primary human T-cells [2] = tested on: primary human T-cells

EC50 (primary human T-cells [2]) [nM] | SMILES | Emax (primary human T-cells [1]) [%] | EC50 (primary human T-cells [1]) [nM]
< 162 | N[C@H]1CS(=O)(=O)c2cc(F)c(-c3nnc(C4CCCCC4(F)F)o3)cc2N(Cc2ccc(OC(F)(F)F)cc2)C1=O (stereo partly drawn) [Example 53, (3R)-3-amino-7-[5-(2,2-difluorocyclohexyl)-1,3,4-oxadiazol-2-yl]-8-fluoro-1,1-dioxo-5-[[4-(trifluoromethoxy)phenyl]methyl]-2,3-dihydro-1λ^6,5-benzothiazepin-4-one] | 243 | < 162
53.2 | N[C@H]1CS(=O)(=O)c2cc(F)c(-c3nnc(C4CCCC(F)(F)C4)o3)cc2N(Cc2ccc(OC(F)(F)F)cc2)C1=O (stereo partly drawn) [Example 55, (3R)-3-Amino-7-[5-(3,3-difluorocyclohexyl)-1,3,4-oxadiazol-2-yl]-8-fluoro-1,1-dioxo-5-[[4-(trifluoromethoxy)phenyl]methyl]-2,3-dihydro-1λ^6,5-benzothiazepin-4-one] | 282 | 50.7
220 | NC(c1nnc(-c2cc3c(cc2F)S(=O)(=O)C[C@H](N)C(=O)N3Cc2ccc(OC(F)(F)F)cc2)o1)C(F)(F)F (stereo partly drawn) [Example 58, (3R)-3-amino-7-[5-(1-amino-2,2,2-trifluoro-ethyl)-1,3,4-oxadiazol-2-yl]-8-fluoro-1,1-dioxo-5-[[4-(trifluoromethoxy)phenyl]methyl]-2,3-dihydro-1λ^6,5-benzothiazepin-4-one] | 126 | 684
79.9 | CC(C)(C#N)c1nnc(-c2cc3c(cc2F)S(=O)(=O)C[C@H](N)C(=O)N3Cc2ccc(OC(F)(F)F)cc2)o1 [Example 59] | 94 | 54.5
535 | Cc1nnc(-c2nnc(-c3cc4c(cc3F)S(=O)(=O)C[C@H](N)C(=O)N4Cc3ccc(OC(F)(F)F)cc3)o2)o1 [Example 60, (3R)-3-amino-8-fluoro-7-[5-(5-methyl-1,3,4-oxadiazol-2-yl)-1,3,4-oxadiazol-2-yl]-1,1-dioxo-5-[[4-(trifluoromethoxy)phenyl]methyl]-2,3-dihydro-1λ^6,5-benzothiazepin-4-one] | 110 | 320
1910 | CN[C@@H](C)C(=O)N[C@H]1CS(=O)(=O)c2cc(F)c(-c3nnc(CC(F)(F)F)o3)cc2N(Cc2ccc(OC(F)(F)F)cc2)C1=O [Example 61, (2S)—N-[(3R)-8-fluoro-1,1,4-trioxo-7-[5-(2,2,2-trifluoroethyl)-1,3,4-oxadiazol-2-yl]-5-[[4-(trifluoromethoxy)phenyl]methyl]-2,3-dihydro-1λ^6,5-benzothiazepin-3-yl]-2-(methylamino)propanamide] | 144 | 625
4350 | CC(C)(CN1CCCC1=O)c1nnc(-c2cc3c(cc2F)S(=O)(=O)C[C@H](N)C(=O)N3Cc2ccc(Cl)cc2)o1 [Example 64, (3R)-3-amino-5-[(4-chlorophenyl)methyl]-7-[5-[1,1-dimethyl-2-(2-oxopyrrolidin-1-yl)ethyl]-1,3,4-oxadiazol-2-yl]-8-fluoro-1,1-dioxo-2,3-dihydro-1λ^6,5-benzothiazepin-4-one] | 36 | > 10000
3850 | N[C@H]1CS(=O)(=O)c2cc(F)c(-c3nnc(C4(CO)CC4)o3)cc2N(Cc2ccc(Cl)cc2)C1=O [Example 65, (3R)-3-amino-5-[(4-chlorophenyl)methyl]-8-fluoro-7-[5-[1-(hydroxymethyl)cyclopropyl]-1,3,4-oxadiazol-2-yl]-1,1-dioxo-2,3-dihydro-1λ^6,5-benzothiazepin-4-one] | 77 | 1060
1330 | CC(C)(CN1CCCCC1=O)c1nnc(-c2cc3c(cc2F)S(=O)(=O)C[C@H](N)C(=O)N3Cc2ccc(Cl)cc2)o1 [Example 66, (3R)-3-amino-5-[(4-chlorophenyl)methyl]-7-[5-[1,1-dimethyl-2-(2-oxo-1-piperidyl)ethyl]-1,3,4-oxadiazol-2-yl]-8-fluoro-1,1-dioxo-2,3-dihydro-1λ^6,5-benzothiazepin-4-one] | 112 | 2070
199 | N[C@H]1CS(=O)(=O)c2cc(F)c(-c3nnc(CCC(F)(F)F)o3)cc2N(Cc2ccc(Cl)cc2)C1=O [Example 67, (3R)-3-Amino-5-[(4-chlorophenyl)methyl]-8-fluoro-1,1-dioxo-7-[5-(3,3,3-trifluoropropyl)-1,3,4-oxadiazol-2-yl]-2,3-dihydro-1λ^6,5-benzothiazepin-4-one] | 165 | 112
> 20000 | N[C@H]1CS(=O)(=O)c2cc(F)c(-c3nnc(CC(F)(F)F)o3)cc2N(Cc2ccc(Cl)cc2)C1=O [Example 68, (3R)-3-Amino-5-[(4-chlorophenyl)methyl]-8-fluoro-1,1-dioxo-7-[5-(2,2,2-trifluoroethyl)-1,3,4-oxadiazol-2-yl]-2,3-dihydro-1λ^6,5-benzothiazepin-4-one] | 91 | 5140
1670 | CC(C)(N)c1nnc(-c2cc3c(cc2F)S(=O)(=O)C[C@H](N)C(=O)N3Cc2ccc(Cl)cc2)o1 [Example 69] | 171 | 4770
74.6 | CC(C)(F)c1nnc(-c2cc3c(cc2F)S(=O)(=O)C[C@H](N)C(=O)N3Cc2ccc(Cl)cc2)o1 [Example 70, (3R)-3-Amino-5-[(4-chlorophenyl)methyl]-8-fluoro-7-[5-(1-fluoro-1-methyl-ethyl)-1,3,4-oxadiazol-2-yl]-1,1-dioxo-2,3-dihydro-1λ^6,5-benzothiazepin-4-one] | 255 | 214
> 20000 | N[C@H]1CS(=O)(=O)c2cc(F)c(-c3nnc(CC(F)F)o3)cc2N(Cc2ccc(Cl)cc2)C1=O [Example 71, (3R)-3-Amino-5-[(4-chlorophenyl)methyl]-7-[5-(2,2-difluoroethyl)-1,3,4-oxadiazol-2-yl]-8-fluoro-1,1-dioxo-2,3-dihydro-1λ^6,5-benzothiazepin-4-one] | 71 | < 162
50.2 | N[C@H]1CS(=O)(=O)c2cc(F)c(-c3nnc(C4CCC(F)(F)CC4)o3)cc2N(Cc2ccc(Cl)cc2)C1=O [Example 73, (3R)-3-Amino-5-[(4-chlorophenyl)methyl]-7-[5-(4,4-difluorocyclohexyl)-1,3,4-oxadiazol-2-yl]-8-fluoro-1,1-dioxo-2,3-dihydro-1λ^6,5-benzothiazepin-4-one] | 194 | 126
114 | N[C@H]1CS(=O)(=O)c2cc(F)c(-c3nnc(C4CCC(F)(F)C4)o3)cc2N(Cc2ccc(Cl)cc2)C1=O (stereo partly drawn) [Example 75, (3R)-3-Amino-5-[(4-chlorophenyl)methyl]-7-[5-(3,3-difluorocyclopentyl)-1,3,4-oxadiazol-2-yl]-8-fluoro-1,1-dioxo-2,3-dihydro-1λ^6,5-benzothiazepin-4-one] | 161 | 35.1
749 | N[C@H]1CS(=O)(=O)c2cc(F)c(-c3nnc(C4CCCC4(F)F)o3)cc2N(Cc2ccc(Cl)cc2)C1=O (stereo partly drawn) [Example 76, (3R)-3-Amino-5-[(4-chlorophenyl)methyl]-7-[5-(2,2-difluorocyclopentyl)-1,3,4-oxadiazol-2-yl]-8-fluoro-1,1-dioxo-2,3-dihydro-1λ^6,5-benzothiazepin-4-one] | 173 | 1080
341 | N[C@H]1CS(=O)(=O)c2cc(F)c(-c3nnc(CC4CC(F)(F)C4)o3)cc2N(Cc2ccc(Cl)cc2)C1=O [Example 77, (3R)-3-Amino-5-[(4-chlorophenyl)methyl]-7-[5-[(3,3-difluorocyclobutyl)methyl]-1,3,4-oxadiazol-2-yl]-8-fluoro-1,1-dioxo-2,3-dihydro-1λ^6,5-benzothiazepin-4-one] | 183 | 
2350 | N[C@H]1CS(=O)(=O)c2cc(F)c(-c3nnc(CC4CCOCC4)o3)cc2N(Cc2ccc(Cl)cc2)C1=O [Example 78, (3R)-3-Amino-5-[(4-chlorophenyl)methyl]-8-fluoro-1,1-dioxo-7-[5-(tetrahydropyran-4-ylmethyl)-1,3,4-oxadiazol-2-yl]-2,3-dihydro-1λ^6,5-benzothiazepin-4-one] | 86 | 1110
176 | N[C@H]1CS(=O)(=O)c2cc(F)c(-c3nnc(C4CC(F)(F)C4)o3)cc2N(Cc2ccc(Cl)cc2)C1=O [Example 80, (3R)-3-Amino-5-[(4-chlorophenyl)methyl]-7-[5-(3,3-difluorocyclobutyl)-1,3,4-oxadiazol-2-yl]-8-fluoro-1,1-dioxo-2,3-dihydro-1λ^6,5-benzothiazepin-4-one] | 278 | 81.5
1270 | N[C@H]1CS(=O)(=O)c2cc(F)c(-c3nnc(C4CCC4(F)F)o3)cc2N(Cc2ccc(Cl)cc2)C1=O (stereo partly drawn) [Example 81, (3R)-3-Amino-5-[(4-chlorophenyl)methyl]-7-[5-(2,2-difluorocyclobutyl)-1,3,4-oxadiazol-2-yl]-8-fluoro-1,1-dioxo-2,3-dihydro-1λ^6,5-benzothiazepin-4-one] | 185 | 521
631 | N[C@H]1CS(=O)(=O)c2cc(F)c(-c3nnc(C4CCOCC4)o3)cc2N(Cc2ccc(Cl)cc2)C1=O [Example 82, (3R)-3-Amino-5-[(4-chlorophenyl)methyl]-8-fluoro-1,1-dioxo-7-(5-tetrahydropyran-4-yl-1,3,4-oxadiazol-2-yl)-2,3-dihydro-1λ^6,5-benzothiazepin-4-one] | 148 | 728
470 | N[C@H]1CS(=O)(=O)c2cc(F)c(-c3nnc(CCF)o3)cc2N(Cc2ccc(Cl)cc2)C1=O [Example 83, (3R)-3-Amino-5-[(4-chlorophenyl)methyl]-8-fluoro-7-[5-(2-fluoroethyl)-1,3,4-oxadiazol-2-yl]-1,1-dioxo-2,3-dihydro-1λ^6,5-benzothiazepin-4-one] | 27 | > 20000

Reference: patent publication US20240368150A1 (Hoffmann-La Roche Inc., priority 2021, published 2024)
